In the supplement of paper PMC10307832:

How the values were obtained:
Assay in all cases: relative viability (nuclei count vs DMSO), 5 days (fraction); higher = more cells survive
Crenolanib + Bortezomib = compound: CC1(COc2ccc3c(c2)ncn3-c2ccc3cccc(N4CCC(N)CC4)c3n2)COC1 [Crenolanib] + CC(C)C[C@H](NC(=O)[C@H](Cc1ccccc1)NC(=O)c1cnccn1)B(O)O [Bortezomib] (partner 0.002 µM)
Method in brief: (§1)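 Medians of duplicate plates are given as relative viability. That measure is the nuclei count in treated wells divided by the count in vehicle wells. Counts were taken on 4× images of lung cancer cell lines in 1536-well plates, 5 days after pin-tool dosing the day after seeding with one drug alone or a fixed anchor-drug dose plus five library-drug doses (not always all listed) in √10 steps.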

Crenolanib + Dasatinib = compound: CC1(COc2ccc3c(c2)ncn3-c2ccc3cccc(N4CCC(N)CC4)c3n2)COC1 [Crenolanib] + Cc1nc(Nc2ncc(C(=O)Nc3c(C)cccc3Cl)s2)cc(N2CCN(CCO)CC2)n1 [Dasatinib] (partner 0.075 µM)
Method in brief: as §1

Tivantinib + Trametinib = compound: O=C1NC(=O)[C@@H](c2cn3c4c(cccc24)CCC3)[C@@H]1c1c[nH]c2ccccc12 [Tivantinib] + CC(=O)Nc1cccc(-n2c(=O)n(C3CC3)c(=O)c3c(Nc4ccc(I)cc4F)n(C)c(=O)c(C)c32)c1 [Trametinib] (partner 0.02 µM)
Method in brief: as §1

Tivantinib + Foretinib = compound: O=C1NC(=O)[C@@H](c2cn3c4c(cccc24)CCC3)[C@@H]1c1c[nH]c2ccccc12 [Tivantinib] + COc1cc2c(Oc3ccc(NC(=O)C4(C(=O)Nc5ccc(F)cc5)CC4)cc3F)ccnc2cc1OCCCN1CCOCC1 [Foretinib] (partner 0.25 µM)
Method in brief: as §1

| Cell Line | relative viability (Crenolanib + Bortezomib; first compound 0.01 µM) | relative viability (Crenolanib + Bortezomib; first compound 0.03162 µM) | relative viability (Crenolanib + Bortezomib; first compound 0.1 µM) | relative viability (Crenolanib + Bortezomib; first compound 0.3162 µM) | relative viability (Crenolanib + Bortezomib; first compound 1 µM) | relative viability (Crenolanib + Dasatinib; first compound 0.01 µM) | relative viability (Crenolanib + Dasatinib; first compound 0.03162 µM) | relative viability (Crenolanib + Dasatinib; first compound 0.1 µM) | relative viability (Crenolanib + Dasatinib; first compound 0.3162 µM) | relative viability (Crenolanib + Dasatinib; first compound 1 µM) | relative viability (Tivantinib + Trametinib; first compound 0.01 µM) | relative viability (Tivantinib + Trametinib; first compound 0.03162 µM) | relative viability (Tivantinib + Trametinib; first compound 0.1 µM) | relative viability (Tivantinib + Trametinib; first compound 0.3162 µM) | relative viability (Tivantinib + Foretinib; first compound 0.01 µM) | relative viability (Tivantinib + Foretinib; first compound 0.03162 µM) | relative viability (Tivantinib + Foretinib; first compound 0.1 µM) | relative viability (Tivantinib + Foretinib; first compound 0.3162 µM) |
| --- | --- | --- | --- | --- | --- | --- | --- | --- | --- | --- | --- | --- | --- | --- | --- | --- | --- | --- |
| NCI-H1993 | 0.82 | 1.11 | 1.04 | 1.06 | 0.994 | 0.621 | 0.63 | 0.588 | 0.623 | 0.429 | 0.545 | 0.462 | 0.565 | 0.437 | 0.808 | 0.762 | 0.766 | 0.545 |
| CAL-12T | 1.05 | 0.667 | 1.23 | 1.02 | 0.789 | 0.455 | 0.51 | 0.498 | 0.615 | 0.514 | 0.451 | 0.269 | 0.359 | 0.183 | 1.17 | 0.953 | 1.1 | 0.782 |
| NCI-H1623 | – | – | – | – | – | 0.55 | 0.515 | 0.548 | 0.558 | 0.504 | – | – | – | – | 0.87 | 0.745 | 0.818 | – |
| HCC-78 | 0.309 | 0.454 | 0.638 | 0.499 | 0.438 | 0.389 | 0.314 | – | 0.354 | 0.275 | 0.761 | 0.696 | 0.589 | 0.445 | 0.548 | 0.547 | 0.539 | 0.441 |
| NCI-H1944 | – | – | – | – | – | 0.255 | 0.234 | 0.213 | 0.211 | 0.168 | 0.449 | 0.406 | 0.444 | 0.345 | 0.795 | 0.874 | 0.851 | 0.63 |
| Calu-6 | 1.06 | 0.97 | 1.03 | 1.1 | 1.02 | – | – | – | – | – | – | – | – | – | 0.931 | 0.924 | 0.806 | 0.725 |
| EBC-1 | 0.798 | 0.581 | 0.573 | 0.559 | 0.462 | – | – | – | – | – | – | – | – | – | 0.117 | 0.107 | 0.0799 | 0.0958 |
| NCI-H358 | – | – | – | – | – | 0.146 | 0.187 | 0.188 | 0.162 | 0.168 | 0.127 | 0.124 | 0.147 | 0.128 | 0.716 | 0.754 | 0.508 | 0.273 |
| IA-LM | 0.806 | 0.771 | 0.726 | 0.949 | 0.978 | – | – | – | – | – | – | – | – | – | 1.01 | 1.15 | 0.983 | 1.12 |
| NCI-H1792 | 1.03 | 0.882 | 0.879 | 1.13 | 0.94 | 0.779 | 0.777 | 0.751 | 0.866 | 0.747 | 0.421 | – | 0.394 | 0.37 | – | – | – | – |
| NCI-H1793 | – | – | – | – | – | 0.365 | 0.412 | 0.4 | 0.404 | 0.418 | 0.506 | 0.408 | 0.404 | 0.329 | 0.698 | 0.616 | 0.762 | 0.548 |
| NCI-H1299 | 1.04 | 1.02 | 0.968 | 1.04 | 1.03 | – | – | – | – | – | – | – | – | – | 1.1 | 1.04 | 1.04 | 1.07 |
| NCI-H1703 | 0.419 | 0.231 | 0.218 | 0.207 | 0.181 | – | – | – | – | – | – | – | – | – | 0.384 | 0.335 | 0.319 | 0.307 |
| NCI-H522 | – | – | – | – | – | 0.987 | 1.01 | 0.899 | 0.854 | 0.975 | 0.859 | 0.605 | 0.815 | 0.645 | – | – | – | – |
| NCI-H1648 | – | – | – | – | – | – | – | – | – | – | – | 0.505 | 0.343 | 0.31 | – | – | – | – |
| SK-MES-1 | – | – | – | – | – | 0.39 | 0.448 | 0.358 | 0.409 | 0.358 | 0.645 | 0.511 | 0.521 | 0.582 | 1.02 | 0.637 | 0.962 | 0.924 |
| NCI-H1563 | 0.926 | 0.901 | 0.897 | 0.865 | 0.829 | 0.452 | 0.41 | 0.472 | 0.464 | 0.452 | – | – | – | – | 0.98 | 0.892 | 0.819 | 0.783 |
| NCI-H2342 | – | – | – | – | – | 0.338 | 0.304 | 0.307 | 0.338 | 0.316 | 0.749 | 0.764 | 0.782 | 0.665 | 1.08 | 1.15 | 0.948 | 0.682 |
| SW 900 | – | – | – | – | – | 0.719 | 0.725 | 0.595 | 0.581 | 0.404 | 0.775 | 0.649 | 0.734 | 0.763 | 0.831 | 0.934 | 0.818 | 0.888 |
| LK-2 | – | – | – | – | – | 0.378 | 0.253 | 0.382 | 0.231 | 0.249 | 0.723 | 0.454 | 0.683 | 0.518 | 1.48 | – | 1.16 | 0.929 |
| HCC-44 | 0.944 | 0.876 | 0.856 | 0.878 | 0.833 | – | – | – | – | – | 1.04 | 1.11 | 1.02 | 1.02 | – | – | – | – |
| NCI-H1395 | – | – | – | – | – | 0.406 | 0.387 | 0.39 | 0.37 | 0.403 | 0.987 | 1.11 | 1.02 | 0.83 | 1.11 | 1.03 | 0.966 | 0.828 |
| A549 | – | – | – | – | – | – | – | – | – | – | – | – | – | – | 0.977 | 1.03 | 0.913 | 0.889 |
| NCI-H2170 | – | – | – | – | – | 0.697 | 0.569 | 0.591 | 0.598 | 0.641 | 0.934 | 0.847 | 0.844 | – | 0.975 | 0.929 | 1.02 | – |
| ABC-1 | 0.289 | 0.353 | 0.331 | 0.308 | 0.253 | 0.566 | 0.718 | 0.538 | 0.608 | 0.564 | – | – | – | – | 0.936 | 0.995 | 1.09 | 1.15 |
